Patent US11123388B2, “Composition for preventing and treating inflammatory bowel disease” (GENUONE SCIENCES INC., priority 2015, dated 2021)
Several values for one entry are separate records, joined by “and”; a condition that tells them apart may be missing. Equal values may be shown once.

Key:
[1] = system: IL-6 production in LPS-treated macrophages; assay: Inhibition of LPS-induced IL-6 production in macrophages (ELISA); assay type: cell-based; settings: LPS 1 μg/mL
Procedure: 5. Effect of Inhibiting IL-6 Production The macrophages (American Type Culture Collections, Rockville, Mass., USA) cultured in a 24-well plate were pretreated with LPS (1 μg/mL) for 1 hour, treated with a extract (50 μg/mL), 20 mM 5-ASA (50 μg/mL) and 20 μM dexamethasone, and cultured for 24 hours, and the supernatant was used for the experiment. First, capture antibody of IL-6 was added into a 96-well ELISA plate and allowed to react overnight. The plate was washed 6 times with 1×PBS (PBS-T) containing 0.05% Tween-20, and blocked with 1× assay diluent solution containing 2% BSA at room temperature for 1 hour. […] The plate was again was washed 6 times with 1×PBS-T, detection antibody was added thereto, and allowed to react at room temperature for 2 hours. The plate was again was washed 6 times with 1×PBS-T, avidin-HRP solution was added thereto, and allowed to react at room temperature for 30 minutes. The plate was again was washed 6 times with 1×PBS-T, a TMB substrate solution was added thereto and allowed to react at room temperature for final 30 minutes, and a reaction stopping solution (1 M H3PO4) was added thereto to stop the reaction. With respect to the levels of reactions of the plate, the absorbance was measured at 450 nm using a microplate reader (TECAN, Gr, Austria).

[2] = system: TNF-α production in LPS-treated macrophages; assay: Inhibition of LPS-induced TNF-α production in macrophages (ELISA); assay type: cell-based; settings: Macrophage, LPS 1 μg/mL, read-out: Effect of inhibiting TNF-α (%)
Procedure: 4. Effect of Inhibiting TNF-α Production The macrophages (American Type Culture Collections, Rockville, Mass., USA) cultured in a 24-well plate were pretreated with LPS (1 μg/mL) for 1 hour, treated with a extract (100 μg/mL), 20 mM 5-ASA (100 μg/mL) and 20 μM dexamethasone, and cultured for 24 hours, and the supernatant of cell was used for the experiment. First, capture antibody of TNF-α was added into a 96-well ELISA plate and allowed to react overnight. The plate was washed 6 times with 1×PBS (PBS-T) containing 0.05% Tween-20, and blocked with 1× assay diluent solution containing 2% BSA at room temperature for 1 hour. The plate was washed 6 times with 1×PBS-T and the supernatant or TNF-α standard protein was added thereto and allowed to react at room temperature for 2 hours. The plate was again was washed 6 times with 1×PBS-T, detection antibody was added thereto, and allowed to react at room temperature for 2 hours. The plate was again was washed 6 times with 1×PBS-T, avidin-HRP solution was added thereto, and allowed to react at room temperature for 30 minutes. […] With respect to the levels of reactions of the plate, the absorbance was measured at 450 nm using a microplate reader (TECAN, Gr, Austria).

[3] = system: U937 cell adhesion to the HT-29 intestinal epithelial cells; assay: Inhibition of monocyte (U937) adhesion to TNF-α-stimulated intestinal epithelial cells (HT-29); assay type: cell-based, human; settings: 5-ASA 20 mM (positive control), TNF-α 100 ng/mL, 24 h
Procedure: 3. Effect of Inhibiting Monocyte Adhesion Ability in Intestinal Epithelial Cells Human intestinal epithelial cell line HT-29 cells (American Type Culture Collections, Rockville, Mass., USA) and human monocyte cell line U937 cells (ATCC, Rockville, Mass., USA) were cultured in RPMI 1640 containing fetal bovine serum (FBS) and 1% penicillin/streptomycin, and the cell line was maintained under the environment of 95% air and 5% CO2 at 37° C. […] The HT-29 cells (2×10^6 cells/well), which were cultured in a 48-well plate for 24 hours, were simultaneously treated with a extract (100 μg/mL) while treating with TNF-α (100 ng/mL), and cultured for 24 hours. In particular, 20 mM 5-aminosalicylic acid (5-ASA) was used as the positive control. Then, HT-29 cells were co-cultured along with U937 cells (5×10^5 cells/well), which were labeled with BCECF/AM at 37° C. for 30 minutes. Unattached U937 cells were removed and washed twice with PBS. The HT-29 cells to which U937 cells were attached were dissolved using 0.1% Triton X-100 which was dissolved in 0.1 mol/L Tris. The fluorescence of these lysates was measured using the luminance at 485 nm and 520 nm using a microplate reader (TECAN, Gr, Austria).

[4] = system: myeloperoxidase (MPO); assay: Myeloperoxidase (MPO) activity in colon tissue, TNBS animal model; assay type: in vivo; settings: TNBS mice, 200 mg/kg
Procedure: 6. Effect of Inhibiting Oxidative Stress Through Measurement of Myeloperoxidase (MPO) Activity
200 μL of lysis buffer was added to 100 mg of colon tissue collected at the time of autopsy and homogenized and the supernatant obtained by centrifugation at 10,000 rpm for 20 minutes was used. First, capture antibody of MPO was added into a 96-well ELISA plate and allowed to react overnight. The plate was washed 6 times with 1×PBS (PBS-T) containing 0.05% Tween-20, and blocked with 1× assay diluent solution containing 2% BSA at room temperature for 1 hour. […] With respect to the levels of reactions of the plate, the absorbance was measured at 450 nm using a microplate reader (TECAN, Gr, Austria).
To construct an experimental model of inflammatory bowel disease, 7-week old ICR female mice (25 g to 27 g) were purchased from DBL Co., Ltd. (Eumseong, Korea), and the mice were given ad libitum access to solid feeds and water and allowed to adapt to a controlled environment with constant humidity (50±10%), constant temperature (22±2° C.), and 12-hour light-dark cycle for 1 week. […] Each of their colons was excised from the cecum to the region immediately before the anus, and the length and external appearance of the excised colon were examined to determine the degree of weight loss, constipation, and intestinal edema, and the results were scored according to the criteria.

[5] = system: dextran sodium sulfate (DSS)-induced colitis in C57BL/6 female mice; assay: Amelioration of colitis in DSS animal model; assay type: in vivo; parameters: DAI (disease activity index): scale not given here; Colon Length: unit not given here
Procedure: 7. Effect of Ameliorating Colitis in DSS Animal Model To construct an experimental model of inflammatory bowel disease, 6-week old C57BL/6 female mice (17 g to 19 g) were purchased from DBL Co., Ltd. (Eumseong, Korea), and the mice were given ad libitum access to solid feeds and water and allowed to adapt to a controlled environment with constant humidity (50%), constant temperature (22° C.), and 12-hour light-dark cycle for 1 week. […] The control drug (5-ASA) and extracts were dissolved in 0.5% carboxymethyl cellulose (CMC), and then orally administered once daily for 7 days along with 3% dextran sodium sulfate (DSS), and the normal control group and the colitis-induced group were orally administered with 0.5% CMC. The colitis-induced group, the control drug-treated group, and the extract-treated group were given ad libitum access to 3% DSS for 1 week, and the normal control group was given ad libitum access to water. Then, the mice were sacrificed on the 8th day, and each of their colons was excised from the cecum to the region immediately before the anus, and the length and external appearance of the excised colon were examined to determine the degree of weight loss, diarrhea, and […], and the results were scored according to the criteria.

[6] = system: TNBS-induced Crohn's disease in ICR female mice; assay: Amelioration of Crohn's disease in TNBS animal model; assay type: in vivo
Procedure: 8. Effect of Ameliorating Crohn's Disease in TNBS Animal Model To construct an experimental model of inflammatory bowel disease, 7-week old ICR female mice (25 g to 27 g) were purchased from DBL Co., Ltd. (Eumseong, Korea), and the mice were given ad libitum access to solid feeds and water and allowed to adapt to a controlled environment with constant humidity (50±10%), constant temperature (22±2° C.), and 12-hour light-dark cycle for 1 week. […] The mice were fasted for 24 hours before injection of TNBS. […] The control drug (5-ASA) and extracts were dissolved in 0.5% carboxymethyl cellulose (CMC), and orally administered once daily for 5 days. The normal control group and the colitis-induced group were orally administered with 0.5% CMC. After 5 days of oral administration, mice were fasted until the next day and sacrificed. Each of their colons was excised from the cecum to the region immediately before the anus, and the length and external appearance of the excised colon were examined to determine the degree of weight loss, constipation, and intestinal edema, and the results were scored according to the criteria.

[7] = system: NO production in HT-29 cells; assay: Inhibition of NO production in HT-29 cells (Griess); assay type: cell-based, human; settings: 48 h
Procedure: 2. Effect of Inhibition of NO Production Human intestinal epithelial cell line HT-29 cells (American Type Culture Collections, Rockville, Mass., USA) were cultured in Dulbecco's Modified Eagle's Medium (DMEM) along with 10% Fatal bovine serum (FBS), 1% Antibiotic-Antimycotic (GIBCO, Cat No. 15240-062) in 100 mm/60.1 cm^2 culture dish at 37° C., 5% CO2 conditions. […] The supernatant of cell was collected and used as a sample for the test. The test analysis was performed using the Total NO/Nitrite/Nitrate ELISA kit (R&D systems, Cat. #KGE001) according to the manufacturer's manual. Briefly, the test was performed in the following sequence: the cell culture which was grown after treatment with the sample was dispensed into a 96-well plate in an amount of 50 μL/well, treated with Griess Reagent, reacted at room temperature for 10 minutes, and the absorbance was measured at 540 nm.

[8] = oral once daily 7 days, control drug 5-ASA 200 mg/kg, listed as Control drug-treated Group
[9] = 200 mg/kg oral once daily 5 days, control drug 5-ASA 200 mg/kg, listed as Control drug-treated Group
[10] = 200 mg/kg oral once daily 5 days, control drug 5-ASA 200 mg/kg, listed as control-drug treated group

## C[C@@H]1C[C@H]2[C@@H]3CCC4=CC(=O)C=C[C@]4(C)[C@@]3(F)[C@@H](O)C[C@]2(C)[C@@]1(O)C(=O)CO [Dexamethasone, dexamethasone]
[1]; Macrophage, dexamethasone 20 μM, read-out: Effect of inhibiting IL-6 (%)
  inhibition at 20 µM: 49.9%
[2]; dexamethasone 20 μM
  inhibition at 20 µM: 38.5%

## Nc1ccc(O)c(C(=O)O)c1 [5-ASA, 5-aminosalicylic acid]
[1]; 5-ASA 20 mM
  Effect of inhibiting IL-6 (%): 67.68% and 50.98%
[1]; 5-ASA 20 mM, listed as 5ASA
  Effect of inhibiting IL-6 (%): 49.89% and 49.35%
[1]; Macrophage, 5-ASA 20 mM, read-out: Effect of inhibiting IL-6 (%)
  inhibition at 20000 µM: 52.8%
[3]
  Effect of inhibiting adhesion (%): 24.48%
[3]; Homo sapiens, read-out: Effect of inhibiting adhesion (%)
  inhibition at 20000 µM: 18.9%
[4]
  decrease of MPO activity compared to the Crohn's disease-induced group: 15%
[5]
  effect of improvement of disease activity index compared to the colitis-induced group: 45%
  increase of the colon length compared to the colitis-induced group: 3.6%
  recovery of intestinal mucosa (immunostaining of intestinal mucosal tissues): partially restored
[5]; [8]
  Colon Length: 5.42 and 5.77 and 5.45 and 5.31 ± 0.16
  Colon Length (cm): 5.42 cm and 5.31 ± 0.16 cm
  DAI (disease activity index): 4.50 and 7.48 and 6.88 ± 0.44 and 5.75 and 5.33
  Weight per Area (colon weight per colon length): 30.66 ± 0.76 and 32.52 and 31.42
[6]; 200 mg/kg
  reduction of weight of colon per colon length compared to the Crohn's disease-induced group: almost no difference
[6]; 200 mg/kg oral once daily 5 days, control drug 5-ASA 200 mg/kg
  Colon Length (cm): 8.33 ± 0.22 cm
[6]; [9]
  Colon Length: 8.28 and 8.33 ± 0.22
  DAI (disease activity index): 10.56 ± 1.40 and 8.20
  Weight per Area (colon weight per colon length): 67.67 ± 9.30 and 46.55
[6]; [10]
  Colon Length: 8.27
  DAI (disease activity index): 6.30
  Weight per Area (colon weight per colon length): 48.66
[6]; 200 mg/kg, listed as Control drug-treated Group, 200 mg/kg
  effect of improvement of disease activity index compared to the Crohn's disease-induced group: 7% and 9%
[6]; 5-ASA 200 mg/kg
  difference in colon weight per colon length compared to the Crohn's disease-induced group: about 6.5 mg/cm
[7]
  inhibitory effect against NO production: 37%
[2]; 5-ASA 20 mM
  inhibition at 20000 µM: 11.1%
